Data set [1] in a line: DMT solubility in various solvents (super saturated mixture, HPLC). Format: physicochemical. From the text: Solubility studies of DMT have been carried out in various solvents by preparing super saturated mixture and analyzed using HPLC.
This warrants a strong need for improvement solubility of DMT API in the film formulation for better bioavailability.

The nature of data set [2]: Excipient compatibility of DMT binary mixtures at 50° C./75% RH (HPLC impurity levels). Format: physicochemical. Here is the method:
Further, several excipients for formulating transmucosal films with desired properties have been analyzed for compatibility with DMT at 50° C./75% RH utilizing HPLC method to detect impurity levels.

Data set [3] is described as follows: Forced degradation study of DMT under stress conditions (HPLC). Format: physicochemical. As to conditions: for % Assay: exposure overnight. Here is the method:
A forced degradation study of DMT was performed under different stress conditions and samples are analyzed using HPLC.
It is important to incorporate antioxidant(s) in the formulation to prevent oxidation of DMT during the shelf life and to form stable films.

A short description of data set [4]: Ex-vivo permeation through porcine buccal mucosa (Franz diffusion cell). Format: in vitro ADME. As to conditions: 180 minutes, phosphate buffered solution 0.01M pH=7. Here is the method:
Further, permeability of DMT through prepared films were evaluated using ex-vivo permeation study i.e., using porcine buccal mucosa as presented below. Ex-vivo permeation is well studied using Franz diffusion cell or Using chambers utilizing animal mucosa (e.g., Pig or sheep buccal mucosa) or by using commercially available synthetic membranes (e.g., Permeapad®). The Franz diffusion cell consists of two compartments; one is the donor compartment, the other is the receptor compartment of 18 mL capacity and having 0.785 cm^2 effective diffusion area. The temperature is maintained at 37° C. by water jacket. […]
Further, all prepared films are evaluated for the permeability through pig buccal mucosa and compared against the permeability of API dispersion in PBS pH 7.0 as presented in FIG. 6. In one aspect, the present invention involves a DMT polymeric film that releases about 5% or less DMT in 60 minutes, about 15% DMT or less in 180 minutes when measured through pig mucosa in phosphate buffered solution 0.01M pH=7, as shown in FIG. 6.
Further, permeability of DMT through prepared films were evaluated using ex-vivo permeation study i.e., porcine buccal mucosa or Permeapad® as presented below.

Data set [5] in a line: pH of the donor chamber media in permeation study. Format: physicochemical. To be noted: PBS pH 7.0.
Data set [6] can be described thus: Solubility of buccal film and neat API in Phosphate buffer saline pH 6.8. Format: physicochemical.
A short description of data set [7]: Physicochemical constants of DMT (log P, pKa, glass transition temperature). As to conditions: amorphous N,N-DMT. The source says: DMT free base is a lipophilic molecule (log P−2.573) with a small backbone (Mol wt. 188.27 g/mol).
The pH of the film plays a very important role in balancing its ionized vs unionized form at the site. In the present invention microenvironmental pH is maintained to achieve balance between ionized and unionized form and thus the permeation across the mucosa.

Converted amounts (≈) assume the structure as drawn.

Turning to `CN(C)CCc1c[nH]c2ccccc12` [DMT, N, N-Dimethyltryptamine], the solubility is 2.3 mg/mL (≈ 12.2 mM) in data set [1] (Saliva Buffer (pH 6.8)); > 126 mg/mL in data set [1] (acetone); > 94 mg/mL in data set [1] (acetonitrile); > 98 mg/mL in data set [1] (ethanol); > 98 mg/mL in data set [1] (isopropyl alcohol water); > 98 mg/mL in data set [1] (methanol). Further, the solubility was 26 mg/mL (≈ 138 mM) in data set [1] (methanol:water (50:50)); > 50 mg/mL in data set [1] (methanol:water (70:30)); > 90 mg/mL in data set [1] (methyl isobutyl ketone); > 104 mg/mL in data set [1] (p-dioxane); > 106 mg/mL in data set [1] (tetrahydrofuran); < 1 mg/mL in data set [1] (water). The compound further displayed a solubility in data set [6] of 2.3 mg/mL (≈ 12.2 mM). In addition, the “No. of Impurities” value in data set [2] came to 6. For the same compound, in data set [2], the “Total Impurities %” value was 2.17%. The “Oxidation upon force degradation study” value in data set [3] is recorded as “highly prone to oxidation”. In addition, the “% Assay” value turned out to be 99.7% in data set [3] (0.1N HCl), 99.4% in data set [3] (0.1N NaOH), 26.6% in data set [3] (3% peroxide) and 98.5% in data set [3] (70° C.). The “DMT released through pig mucosa” value in data set [4] is reported as “about 33%”. In data set [5], the “pH of the donor chamber media” value stood at 9.5. The Glass transition temperature in data set [7] is −18 °C.

These data come from patent publication US20230136824A1, “N-N-[…] (DMT) AND DMT ANALOG COMPOSITIONS, METHODS OF MAKING, AND METHODS OF USE THEREOF” (ATAI Life Sciences AG, priority 2021, published 2023).
